Laboratory results taken from patent US12441768B2, “Compositions and methods for treating endometriosis” (EndoMet Biosciences, Inc., priority 2018, dated 2025).
pEC50, pKd: −log10 of the molar value. Where a SMILES comes first, the peptide text is derived from it.

Tests used:
[1] = % Viability non-Wnt responsive cells
β-catenin = biological target: T1, β-catenin (Homo sapiens, UniProt P35222); experiment: KD50 measurement using competitive fluorescence polarization (FP) with labelled TCF4; type: binding; settings: fluorescence polarization, β-catenin; for pKd: read-out: β-Cat FP KD
T1 sequence (P35222 1-781): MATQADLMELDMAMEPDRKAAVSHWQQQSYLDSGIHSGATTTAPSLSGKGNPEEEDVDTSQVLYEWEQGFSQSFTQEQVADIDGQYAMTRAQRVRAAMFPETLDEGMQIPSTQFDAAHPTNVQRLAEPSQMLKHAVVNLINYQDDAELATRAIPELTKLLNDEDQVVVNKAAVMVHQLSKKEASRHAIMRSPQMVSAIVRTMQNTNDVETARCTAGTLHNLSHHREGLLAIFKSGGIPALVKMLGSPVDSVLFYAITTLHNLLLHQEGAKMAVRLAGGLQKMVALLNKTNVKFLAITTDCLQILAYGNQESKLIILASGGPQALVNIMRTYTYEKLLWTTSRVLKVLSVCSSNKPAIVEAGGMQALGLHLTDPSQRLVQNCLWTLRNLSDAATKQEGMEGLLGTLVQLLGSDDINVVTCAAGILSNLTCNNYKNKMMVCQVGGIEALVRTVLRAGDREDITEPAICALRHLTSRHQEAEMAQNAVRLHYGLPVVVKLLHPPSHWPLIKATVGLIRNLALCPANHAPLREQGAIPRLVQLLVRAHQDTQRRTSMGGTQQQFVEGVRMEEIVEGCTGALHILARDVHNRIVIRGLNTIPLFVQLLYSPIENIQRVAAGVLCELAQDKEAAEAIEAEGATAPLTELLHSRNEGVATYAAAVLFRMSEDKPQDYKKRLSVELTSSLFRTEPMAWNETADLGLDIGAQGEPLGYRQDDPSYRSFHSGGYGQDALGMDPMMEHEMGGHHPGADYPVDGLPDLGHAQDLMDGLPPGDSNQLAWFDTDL
Procedure, shortened: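 Each compound competes against labelled TCF4 (5 nM) for 100 nM β-catenin at room temperature, tested over 10 nM to 30 uM. Signal: polarization at 470/520 nm excitation/emission. Three repeat experiments were performed.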

[2] = biological target: Wnt-responsive promoter (TCF/LEF); experiment: Wnt-dependent luciferase reporter assay; type: cell-based, murine
Procedure, shortened: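 EC50 (uM) derived from inhibition of luminescence in Wnt3a-stimulated murine 3T3 cells expressing luciferase under a TCF/LEF promoter, with peptides added across a concentration range and vehicle as control.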

β-Cat FP Hill slope (β-catenin)	pEC50 [2]	pKd (β-catenin)	Structure (SMILES)	viability [1]
–	> 5.12	< 4.52	CC[C@H](C)[C@@H]1NC(=O)[C@H](CC(C)C)NC(=O)[C@H](Cc2ccccc2)NC(=O)[C@H](Cc2c[nH]c3ccccc23)NC(=O)[C@@H](N)CC(=O)NCCCC[C@@H](C(=O)NCC(=O)O)NC(=O)[C@H](Cc2c[nH]c3ccccc23)NC(=O)[C@H](C)NC(=O)[C@H](CS)NC1=O [compound 178] (HELM PEPTIDE1{D.W.F.L.I.C.A.W.K.G}$PEPTIDE1,PEPTIDE1,1:R3-9:R3$$$V2.0)	91.8%
1.06	4.52 to 4.65	6.00 to 6.40	CC[C@H](C)[C@@H]1NC(=O)[C@H](CC(C)C)NC(=O)[C@H]([C@@H](C)CC)NC(=O)[C@H](Cc2c[nH]c3ccccc23)NC(=O)[C@@H](N)CCCCNC(=O)CC[C@@H](C(=O)O)NC(=O)[C@H](Cc2c[nH]c3ccccc23)NC(=O)[C@H](Cc2ccccc2)NC(=O)[C@H](CO)NC1=O [compound 182] (HELM PEPTIDE1{K.W.I.L.I.S.F.W.E}$PEPTIDE1,PEPTIDE1,1:R3-9:R3$$$V2.0)	95.3%
0.7	> 5.12	5.00 to 6.00	CC[C@H](C)[C@@H]1NC(=O)[C@H](CC(C)C)NC(=O)[C@H](Cc2ccccc2)NC(=O)[C@H](Cc2c[nH]c3ccccc23)NC(=O)[C@@H](N)CCCCNC(=O)CC[C@@H](C(=O)O)NC(=O)[C@H](Cc2c[nH]c3ccccc23)NC(=O)[C@H](C)NC(=O)[C@H](CO)NC1=O [compound 183] (HELM PEPTIDE1{K.W.F.L.I.S.A.W.E}$PEPTIDE1,PEPTIDE1,1:R3-9:R3$$$V2.0)	97%
0.7	> 5.12	4.52 to 5.00	CC[C@H](C)[C@@H]1NC(=O)[C@H](CC(C)C)NC(=O)[C@H]([C@@H](C)CC)NC(=O)[C@H](Cc2c[nH]c3ccccc23)NC(=O)[C@@H](N)CCCCNC(=O)CC[C@@H](C(=O)O)NC(=O)[C@H](Cc2c[nH]c3ccccc23)NC(=O)[C@H](C)NC(=O)[C@H](CO)NC1=O [compound 184] (HELM PEPTIDE1{K.W.I.L.I.S.A.W.E}$PEPTIDE1,PEPTIDE1,1:R3-9:R3$$$V2.0)	95.2%
0.7	4.82 to 5.12	5.00 to 6.00	CC[C@H](C)[C@@H]1NC(=O)[C@H](CC(C)C)NC(=O)[C@H](Cc2ccccc2)NC(=O)[C@H](Cc2c[nH]c3ccccc23)NC(=O)[C@@H](NC(C)=O)CCCCNC(=O)CC[C@@H](C(=O)O)NC(=O)[C@H](Cc2c[nH]c3ccccc23)NC(=O)[C@H](C)NC(=O)[C@H](CO)NC1=O [compound 187] (HELM PEPTIDE1{[ac].K.W.F.L.I.S.A.W.E}$PEPTIDE1,PEPTIDE1,2:R3-10:R3$$$V2.0)	90.3%
0.7	> 5.12	4.52 to 5.00	CC[C@H](C)[C@@H]1NC(=O)[C@H](CC(C)C)NC(=O)[C@H]([C@@H](C)CC)NC(=O)[C@H](Cc2c[nH]c3ccccc23)NC(=O)[C@@H](NC(C)=O)CCCCNC(=O)CC[C@@H](C(=O)O)NC(=O)[C@H](Cc2c[nH]c3ccccc23)NC(=O)[C@H](C)NC(=O)[C@H](CO)NC1=O [compound 188] (HELM PEPTIDE1{[ac].K.W.I.L.I.S.A.W.E}$PEPTIDE1,PEPTIDE1,2:R3-10:R3$$$V2.0)	97.6%

More lines, now with the values behind:

Structure (SMILES)	β-Cat FP Hill slope (β-catenin)	pEC50 [2]	pKd (β-catenin)	viability [1]
CC[C@H](C)[C@@H]1NC(=O)[C@H](CC(C)C)NC(=O)[C@H](Cc2ccccc2)NC(=O)[C@H](Cc2c[nH]c3ccccc23)NC(=O)[C@@H](N)CCCCNC(=O)CC[C@@H](C(=O)N[C@@H](Cc2c[nH]c3ccccc23)C(=O)NCC(=O)O)NC(=O)[C@H](CS)NC1=O [compound 173] (HELM PEPTIDE1{K.W.F.L.I.C.E.W.G}$PEPTIDE1,PEPTIDE1,1:R3-7:R3$$$V2.0)	0.7	< 4.52	–	107%
CC[C@H](C)[C@@H]1NC(=O)[C@H](CC(C)C)NC(=O)[C@H](Cc2ccccc2)NC(=O)[C@H](Cc2c[nH]c3ccccc23)NC(=O)[C@@H](N)CCCCNC(=O)CNC(=O)CC[C@@H](C(=O)NCC(=O)O)NC(=O)[C@H](Cc2c[nH]c3ccccc23)NC(=O)[C@H](Cc2ccccc2)NC(=O)[C@H](CS)NC1=O [compound 174] (HELM PEPTIDE1{K.W.F.L.I.C.F.W.E.G}|CHEM1{[O=C(CN[*:2])[*:1]]}$PEPTIDE1,CHEM1,1:R3-1:R1|PEPTIDE1,CHEM1,9:R3-1:R2$$$V2.0)	0.7	4.82 to 5.12	5.00 to 6.00	102%
CC[C@H](C)[C@@H]1NC(=O)[C@H](CC(C)C)NC(=O)[C@H](Cc2ccccc2)NC(=O)[C@H](Cc2c[nH]c3ccccc23)NC(=O)[C@@H](NC(C)=O)CC(=O)NCCCC[C@@H](C(=O)NCC(=O)O)NC(=O)[C@H](Cc2c[nH]c3ccccc23)NC(=O)[C@H](Cc2ccccc2)NC(=O)[C@H](CS)NC1=O [compound 175] (HELM PEPTIDE1{[ac].D.W.F.L.I.C.F.W.K.G}$PEPTIDE1,PEPTIDE1,2:R3-10:R3$$$V2.0)	0.7	4.82 to 5.12	4.52 to 5.00	100%
CC[C@H](C)[C@@H]1NC(=O)[C@H](CC(C)C)NC(=O)[C@H](Cc2ccccc2)NC(=O)[C@H](Cc2c[nH]c3ccccc23)NC(=O)[C@@H](N)CC(=O)NCCCC[C@@H](C(=O)NCC(=O)O)NC(=O)[C@H](Cc2c[nH]c3ccccc23)NC(=O)[C@H](Cc2ccccc2)NC(=O)[C@H](CS)NC1=O [compound 176] (HELM PEPTIDE1{D.W.F.L.I.C.F.W.K.G}$PEPTIDE1,PEPTIDE1,1:R3-9:R3$$$V2.0)	0.85	4.82 to 5.12	4.52 to 5.00	109%
CC[C@H](C)[C@@H]1NC(=O)[C@H](CC(C)C)NC(=O)[C@H](Cc2ccccc2)NC(=O)[C@H](Cc2c[nH]c3ccccc23)NC(=O)[C@H](CCSC)NC(=O)[C@@H](N)CC(=O)NCCCC[C@@H](C(=O)NCC(=O)O)NC(=O)[C@H](Cc2c[nH]c3ccccc23)NC(=O)[C@H](Cc2ccccc2)NC(=O)[C@H](CS)NC1=O [compound 177] (HELM PEPTIDE1{D.M.W.F.L.I.C.F.W.K.G}$PEPTIDE1,PEPTIDE1,1:R3-10:R3$$$V2.0)	–	4.82 to 5.12	< 4.52	98.6%
CC[C@H](C)[C@@H]1NC(=O)[C@H](CC(C)C)NC(=O)[C@H](Cc2ccccc2)NC(=O)[C@H](Cc2c[nH]c3ccccc23)NC(=O)[C@@H](N)CCCCNC(=O)CC[C@@H](C(=O)O)NC(=O)[C@H](Cc2c[nH]c3ccccc23)NC(=O)[C@H](Cc2ccccc2)NC(=O)[C@H](CS)NC1=O [compound 179] (HELM PEPTIDE1{K.W.F.L.I.C.F.W.E}$PEPTIDE1,PEPTIDE1,1:R3-9:R3$$$V2.0)	1.01	> 5.12	5.00 to 6.00	90.9%
CC[C@H](C)[C@@H]1NC(=O)[C@H](CC(C)C)NC(=O)[C@H](Cc2ccccc2)NC(=O)[C@H](Cc2c[nH]c3ccccc23)NC(=O)[C@H](CCSC)NC(=O)[C@@H](N)CCCCNC(=O)CC[C@@H](C(=O)N[C@@H](Cc2c[nH]c3ccccc23)C(=O)NCC(=O)O)NC(=O)[C@H](CS)NC1=O [compound 180] (HELM PEPTIDE1{K.M.W.F.L.I.C.E.W.G}$PEPTIDE1,PEPTIDE1,1:R3-8:R3$$$V2.0)	–	> 5.12	< 4.52	103%
CC[C@H](C)[C@@H]1NC(=O)[C@H](CC(C)C)NC(=O)[C@H](Cc2ccccc2)NC(=O)[C@H](Cc2c[nH]c3ccccc23)NC(=O)[C@@H](NC(C)=O)CCCCNC(=O)CC[C@@H](C(=O)O)NC(=O)[C@H](Cc2c[nH]c3ccccc23)NC(=O)[C@H](Cc2ccccc2)NC(=O)[C@H](CS)NC1=O [compound 185] (HELM PEPTIDE1{[ac].K.W.F.L.I.C.F.W.E}$PEPTIDE1,PEPTIDE1,2:R3-10:R3$$$V2.0)	1.32	4.52 to 4.65	> 6.40	87.8%
CC[C@H](C)[C@@H]1NC(=O)[C@H](CC(C)C)NC(=O)[C@H](Cc2ccccc2)NC(=O)[C@H](Cc2c[nH]c3ccccc23)NC(=O)[C@H](CCSC)NC(=O)[C@@H](NC(C)=O)CCCCNC(=O)CC[C@@H](C(=O)O)NC(=O)[C@H](Cc2c[nH]c3ccccc23)NC(=O)[C@H](Cc2ccccc2)NC(=O)[C@H](CS)NC1=O [compound 186] (HELM PEPTIDE1{[ac].K.M.W.F.L.I.C.F.W.E}$PEPTIDE1,PEPTIDE1,2:R3-11:R3$$$V2.0)	1.07	< 4.52	6.00 to 6.40	96.4%
